Experimental data taken from PubChem BioAssay (NCI).
Where “and” joins values, the source holds several entries; their conditions need not be identical. Identical values can stand only once.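 Each compound was tested at five concentrations against cells in 96-well plates for 48 hours. GI50 = concentration required for 50% inhibition of growth. TGI: concentration producing complete growth inhibition.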

Columns and labels:
Experiment in all cases: NCI anticancer screen, dose series, 48 h
SW-620 colon = system: SW-620 colon
SK-MEL-2 melanoma = system: SK-MEL-2 melanoma
HCT-116 colon = system: HCT-116 colon
HT29 colon = system: HT29 colon
A549 NSCLC = system: A549 NSCLC
DU-145 prostate = system: DU-145 prostate
CCRF-CEM leukemia = system: CCRF-CEM leukemia
TK-10 renal = system: TK-10 renal
A498 renal = system: A498 renal
COLO 205 colon = system: COLO 205 colon
SNB-19 CNS = system: SNB-19 CNS
MDA-MB-435 = system: MDA-MB-435
HL-60(TB) leukemia = system: HL-60(TB) leukemia
HOP-92 NSCLC = system: HOP-92 NSCLC
MCF7 breast = system: MCF7 breast
EKVX NSCLC = system: EKVX NSCLC
SN12C renal = system: SN12C renal
HOP-62 NSCLC = system: HOP-62 NSCLC
HS 578T breast = system: HS 578T breast
UO-31 renal = system: UO-31 renal
SF-539 CNS = system: SF-539 CNS
SF-268 CNS = system: SF-268 CNS
T-47D breast = system: T-47D breast
MOLT-4 leukemia = system: MOLT-4 leukemia
CAKI-1 renal = system: CAKI-1 renal
UACC-62 melanoma = system: UACC-62 melanoma
OVCAR-3 ovarian = system: OVCAR-3 ovarian
NCI-H522 lung = system: NCI-H522 lung
HCC-2998 colon = system: HCC-2998 colon
OVCAR-8 ovarian = system: OVCAR-8 ovarian
UACC-257 melanoma = system: UACC-257 melanoma
SR leukemia = system: SR leukemia
NCI/ADR-RES ovarian = system: NCI/ADR-RES ovarian
RPMI-8226 leukemia = system: RPMI-8226 leukemia
SK-OV-3 ovarian = system: SK-OV-3 ovarian
SK-MEL-28 melanoma = system: SK-MEL-28 melanoma
NCI-H226 lung = system: NCI-H226 lung
MDA-MB-468 breast = system: MDA-MB-468 breast
ACHN renal = system: ACHN renal
M14 melanoma = system: M14 melanoma
MDA-MB-231 breast = system: MDA-MB-231 breast
U251 CNS = system: U251 CNS
K-562 leukemia = system: K-562 leukemia
SNB-75 CNS = system: SNB-75 CNS
OVCAR-4 ovarian = system: OVCAR-4 ovarian
OVCAR-5 ovarian = system: OVCAR-5 ovarian
SF-295 CNS = system: SF-295 CNS
NCI-H460 lung = system: NCI-H460 lung
MALME-3M melanoma = system: MALME-3M melanoma
IGROV1 ovarian = system: IGROV1 ovarian
786-0 renal = system: 786-0 renal
HCT-15 colon = system: HCT-15 colon
LOX IMVI melanoma = system: LOX IMVI melanoma
KM12 colon = system: KM12 colon
SK-MEL-5 melanoma = system: SK-MEL-5 melanoma
BT-549 breast = system: BT-549 breast
PC-3 prostate = system: PC-3 prostate
NCI-H23 lung = system: NCI-H23 lung

Structure (SMILES): COc1ccc(C(=O)/C=C/c2ccc(OCc3ccccc3)c(OC)c2)cc1OC
- GI50 (SW-620 colon): 3.64 µM
- TGI (SW-620 colon): > 100 µM
- GI50 (SK-MEL-2 melanoma): 17.4 µM
- TGI (SK-MEL-2 melanoma): 60.5 µM
- GI50 (HCT-116 colon): 3.56 µM
- TGI (HCT-116 colon): > 100 µM
- GI50 (HT29 colon): 3.52 µM
- TGI (HT29 colon): > 100 µM
- GI50 (A549 NSCLC): 10.4 µM
- TGI (A549 NSCLC): > 100 µM
- GI50 (DU-145 prostate): 5.78 µM
- TGI (DU-145 prostate): > 100 µM
- GI50 (CCRF-CEM leukemia): 4.01 µM
- TGI (CCRF-CEM leukemia): > 100 µM
- GI50 (TK-10 renal): 21.4 µM
- TGI (TK-10 renal): > 100 µM
- GI50 (A498 renal): 20.3 µM
- TGI (A498 renal): 94.2 µM
- GI50 (COLO 205 colon): 15.7 µM
- TGI (COLO 205 colon): > 100 µM
- GI50 (SNB-19 CNS): 8.3 µM
- TGI (SNB-19 CNS): > 100 µM
- GI50 (MDA-MB-435): 12 µM
- TGI (MDA-MB-435): 59.6 µM
- GI50 (HL-60(TB) leukemia): 13.4 µM
- TGI (HL-60(TB) leukemia): 61.2 µM
- GI50 (HOP-92 NSCLC): 6.03 µM
- TGI (HOP-92 NSCLC): > 100 µM
- GI50 (MCF7 breast): 3.44 µM
- TGI (MCF7 breast): > 100 µM
- GI50 (EKVX NSCLC): 11.4 µM
- TGI (EKVX NSCLC): > 100 µM
- GI50 (SN12C renal): 4.48 µM
- TGI (SN12C renal): 45.7 µM
- GI50 (HOP-62 NSCLC): 4.95 µM
- TGI (HOP-62 NSCLC): > 100 µM
- GI50 (HS 578T breast): 18.4 µM
- TGI (HS 578T breast): > 100 µM
- GI50 (UO-31 renal): 5.38 µM
- TGI (UO-31 renal): > 100 µM
- GI50 (SF-539 CNS): 3.38 µM
- TGI (SF-539 CNS): 13.1 µM
- GI50 (SF-268 CNS): 10.8 µM
- TGI (SF-268 CNS): > 100 µM
- GI50 (T-47D breast): 5.46 µM
- TGI (T-47D breast): > 100 µM
- GI50 (MOLT-4 leukemia): 4.47 µM
- TGI (MOLT-4 leukemia): > 100 µM
- GI50 (CAKI-1 renal): 16.7 µM
- TGI (CAKI-1 renal): > 100 µM
- GI50 (UACC-62 melanoma): 6.42 µM
- TGI (UACC-62 melanoma): > 100 µM
- GI50 (OVCAR-3 ovarian): 4.48 µM
- TGI (OVCAR-3 ovarian): > 100 µM
- GI50 (NCI-H522 lung): 4.86 µM
- TGI (NCI-H522 lung): 36.3 µM
- GI50 (HCC-2998 colon): 7.06 µM
- TGI (HCC-2998 colon): 30 µM
- GI50 (OVCAR-8 ovarian): 3.6 µM
- TGI (OVCAR-8 ovarian): > 100 µM
- GI50 (UACC-257 melanoma): 29.3 µM
- TGI (UACC-257 melanoma): > 100 µM
- GI50 (SR leukemia): 2.8 µM
- TGI (SR leukemia): > 100 µM
- GI50 (NCI/ADR-RES ovarian): 5.08 µM
- TGI (NCI/ADR-RES ovarian): 39.3 µM
- GI50 (RPMI-8226 leukemia): 3.02 µM
- TGI (RPMI-8226 leukemia): > 100 µM
- GI50 (SK-OV-3 ovarian): 40.5 µM
- TGI (SK-OV-3 ovarian): > 100 µM
- GI50 (SK-MEL-28 melanoma): 34 µM
- TGI (SK-MEL-28 melanoma): > 100 µM
- GI50 (NCI-H226 lung): 5.34 µM
- TGI (NCI-H226 lung): 87.3 µM
- GI50 (MDA-MB-468 breast): 2.15 µM and 3.99 µM
- TGI (MDA-MB-468 breast): 7.35 µM and 32.2 µM
- GI50 (ACHN renal): 15.3 µM
- TGI (ACHN renal): > 100 µM
- GI50 (M14 melanoma): 27.4 µM
- TGI (M14 melanoma): > 100 µM
- GI50 (MDA-MB-231 breast): 8.48 µM
- TGI (MDA-MB-231 breast): 78.9 µM
- GI50 (U251 CNS): 3.16 µM
- TGI (U251 CNS): > 100 µM
- GI50 (K-562 leukemia): 3.06 µM
- TGI (K-562 leukemia): > 100 µM
- GI50 (SNB-75 CNS): 18.7 µM
- TGI (SNB-75 CNS): 77.2 µM
- GI50 (OVCAR-4 ovarian): 4.28 µM
- TGI (OVCAR-4 ovarian): > 100 µM
- GI50 (OVCAR-5 ovarian): 12.5 µM
- TGI (OVCAR-5 ovarian): 92.2 µM
- GI50 (SF-295 CNS): 9.59 µM
- TGI (SF-295 CNS): > 100 µM
- GI50 (NCI-H460 lung): 4.6 µM
- TGI (NCI-H460 lung): 38.3 µM
- GI50 (MALME-3M melanoma): 41.1 µM
- TGI (MALME-3M melanoma): > 100 µM
- GI50 (IGROV1 ovarian): 6.33 µM
- TGI (IGROV1 ovarian): > 100 µM
- GI50 (786-0 renal): 25.4 µM
- TGI (786-0 renal): > 100 µM
- GI50 (HCT-15 colon): 3.45 µM
- TGI (HCT-15 colon): 47.6 µM
- GI50 (LOX IMVI melanoma): 4.11 µM
- TGI (LOX IMVI melanoma): 37.1 µM
- GI50 (KM12 colon): 5.19 µM
- TGI (KM12 colon): > 100 µM
- GI50 (SK-MEL-5 melanoma): 17.4 µM
- TGI (SK-MEL-5 melanoma): 43.1 µM
- GI50 (BT-549 breast): 5.08 µM
- TGI (BT-549 breast): 55.7 µM
- GI50 (PC-3 prostate): 7.05 µM
- TGI (PC-3 prostate): > 100 µM
- GI50 (NCI-H23 lung): 6.95 µM
- TGI (NCI-H23 lung): 43 µM
